Source: the supplement of paper PMC10307832

Assays:
Test in all cases: relative viability (nuclei count vs DMSO), 5 days (fraction); higher = more cells survive
Ruxolitinib + Pemetrexed = compound: N#CC[C@H](C1CCCC1)n1cc(-c2ncnc3[nH]ccc23)cn1 [Ruxolitinib] + Nc1nc2[nH]cc(CCc3ccc(C(=O)N[C@@H](CCC(=O)O)C(=O)O)cc3)c2c(=O)[nH]1 [Pemetrexed] (partner 0.2 µM)
Summary of the method: (§1)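 Relative viability was taken as the ratio of nuclei in treated wells to nuclei in vehicle wells. Lung cancer cell lines in 1536-well plates received compounds by pin tool one day after seeding, either one drug alone or a fixed anchor-drug dose plus five library-drug doses (not always all listed) in √10 steps. Nuclei were counted on 4× images after 5 days of treatment, and values are medians of duplicate plates.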

Ruxolitinib + Dasatinib = compound: N#CC[C@H](C1CCCC1)n1cc(-c2ncnc3[nH]ccc23)cn1 [Ruxolitinib] + Cc1nc(Nc2ncc(C(=O)Nc3c(C)cccc3Cl)s2)cc(N2CCN(CCO)CC2)n1 [Dasatinib] (partner 0.075 µM)
Summary of the method: as §1

Vismodegib + Foretinib = compound: CS(=O)(=O)c1ccc(C(=O)Nc2ccc(Cl)c(-c3ccccn3)c2)c(Cl)c1 [Vismodegib] + COc1cc2c(Oc3ccc(NC(=O)C4(C(=O)Nc5ccc(F)cc5)CC4)cc3F)ccnc2cc1OCCCN1CCOCC1 [Foretinib] (partner 0.25 µM)
Summary of the method: as §1

Vismodegib + Pemetrexed = compound: CS(=O)(=O)c1ccc(C(=O)Nc2ccc(Cl)c(-c3ccccn3)c2)c(Cl)c1 [Vismodegib] + Nc1nc2[nH]cc(CCc3ccc(C(=O)N[C@@H](CCC(=O)O)C(=O)O)cc3)c2c(=O)[nH]1 [Pemetrexed] (partner 0.2 µM)
Summary of the method: as §1

Cell Line	relative viability (Ruxolitinib + Pemetrexed; first compound 0.08 µM)	relative viability (Ruxolitinib + Pemetrexed; first compound 0.253 µM)	relative viability (Ruxolitinib + Pemetrexed; first compound 0.8 µM)	relative viability (Ruxolitinib + Pemetrexed; first compound 2.53 µM)	relative viability (Ruxolitinib + Pemetrexed; first compound 8 µM)	relative viability (Ruxolitinib + Dasatinib; first compound 0.08 µM)	relative viability (Ruxolitinib + Dasatinib; first compound 0.253 µM)	relative viability (Ruxolitinib + Dasatinib; first compound 0.8 µM)	relative viability (Ruxolitinib + Dasatinib; first compound 2.53 µM)	relative viability (Ruxolitinib + Dasatinib; first compound 8 µM)	relative viability (Vismodegib + Foretinib; first compound 0.08 µM)	relative viability (Vismodegib + Foretinib; first compound 0.253 µM)	relative viability (Vismodegib + Foretinib; first compound 0.8 µM)	relative viability (Vismodegib + Foretinib; first compound 2.53 µM)	relative viability (Vismodegib + Foretinib; first compound 8 µM)	relative viability (Vismodegib + Pemetrexed; first compound 0.08 µM)	relative viability (Vismodegib + Pemetrexed; first compound 0.253 µM)	relative viability (Vismodegib + Pemetrexed; first compound 0.8 µM)	relative viability (Vismodegib + Pemetrexed; first compound 2.53 µM)	relative viability (Vismodegib + Pemetrexed; first compound 8 µM)
EPLC-272H	0.357	0.372	0.377	0.313	0.218	0.399	0.402	0.42	0.243	0.134	0.787	0.727	0.68	0.785	0.776	0.285	0.418	0.324	0.317	0.33
H3255	0.506	0.553	0.569	0.528	0.473	0.301	0.402	0.421	0.282	0.31	0.865	0.866	0.822	0.888	0.878	0.56	0.57	0.532	0.485	0.542
HARA	0.206	0.27	0.225	0.221	0.229	0.224	0.323	0.305	0.195	0.22	0.977	0.992	0.41	0.805	1.03	0.243		0.303	0.263	0.242
HCC-15	0.223	0.227	0.212	0.194	0.203	0.661	0.492	0.675	0.439	0.286	1.01	0.964	1.04	1.09	1.04	0.215	0.215	0.265	0.219	0.228
HCC-78	0.919	0.952	0.857	0.892	0.955	0.39	0.319	0.387	0.354	0.323	0.515	0.538	0.511	0.593	0.532	0.907	0.951	0.961	0.785	0.891
HCC-366	0.162	0.193	0.155	0.192	0.147	0.646	0.547	0.595	0.431	0.52	0.893	0.925	0.877	0.956	0.864	0.164	0.17	0.186	0.166	0.158
HCC-827		0.249	0.231	0.258	0.274	0.133	0.3	0.346	0.231	0.199	0.995	1.03	0.972	1.01	0.866	0.246	0.283	0.563	0.284	0.267
HOP-62	0.324	0.363	0.299	0.314	0.323	0.698	0.588	0.739	0.557	0.342	1.1	1.03	1.1	1.07	1.1	0.305	0.295	0.263	0.377	0.272
LC-2-ad	0.287	0.306	0.306	0.26	0.272		0.476	0.54	0.382	0.272	0.924	0.848	0.893	0.847	1.02	0.269	0.271	0.278	0.276	0.26
LCLC-97TM1	0.21	0.21	0.184	0.175	0.147	0.912	0.731	0.712	0.62	0.623	0.953	0.934	0.869	0.97	0.912	0.205	0.171	0.149	0.176	0.178
LCLC-103H	0.454	0.474	0.45	0.46	0.455	0.418	0.448	0.564	0.382	0.362	0.747	0.758	0.73	0.756	0.776	0.431	0.552	0.474	0.473	0.481
LK-2	0.291	0.276	0.308	0.234	0.29	0.287	0.339	0.332	0.32	0.349	1.14	0.974	1.13	1.34	1.38	0.248	0.255	0.307	0.238	0.266
LOU-NH91	0.376	0.338	0.378	0.354	0.353		0.461	0.556	0.496	0.439	0.943	0.925	0.905	0.867	0.912	0.349	0.385	0.42	0.416	0.414
LU99A	0.171	0.179	0.178	0.186	0.195	0.628	0.607	0.514	0.429	0.38	0.866	0.775	0.751	0.725	0.79	0.187	0.164	0.246	0.163	0.176
LXF-289	0.866	0.943	0.925	0.933	0.852	0.192	0.191	0.216	0.135	0.0782	0.943	0.913	1.01	0.97	0.922	0.897	0.94	0.933	0.978	0.759
NCI-H23	0.779	0.787	0.755	0.708	0.564	0.536	0.679	0.8	0.597	0.517	0.925	0.899	1.01	0.593	1.2	0.7	0.539	0.569	0.639	0.65

Cell Line	relative viability (Ruxolitinib + Pemetrexed; first compound 0.08 µM)	relative viability (Ruxolitinib + Pemetrexed; first compound 0.253 µM)	relative viability (Ruxolitinib + Pemetrexed; first compound 0.8 µM)	relative viability (Ruxolitinib + Pemetrexed; first compound 2.53 µM)	relative viability (Ruxolitinib + Pemetrexed; first compound 8 µM)	relative viability (Ruxolitinib + Dasatinib; first compound 0.08 µM)	relative viability (Ruxolitinib + Dasatinib; first compound 0.253 µM)	relative viability (Ruxolitinib + Dasatinib; first compound 0.8 µM)	relative viability (Ruxolitinib + Dasatinib; first compound 2.53 µM)	relative viability (Ruxolitinib + Dasatinib; first compound 8 µM)	relative viability (Vismodegib + Foretinib; first compound 0.08 µM)	relative viability (Vismodegib + Foretinib; first compound 0.253 µM)	relative viability (Vismodegib + Foretinib; first compound 0.8 µM)	relative viability (Vismodegib + Foretinib; first compound 2.53 µM)	relative viability (Vismodegib + Foretinib; first compound 8 µM)	relative viability (Vismodegib + Pemetrexed; first compound 0.08 µM)	relative viability (Vismodegib + Pemetrexed; first compound 0.253 µM)	relative viability (Vismodegib + Pemetrexed; first compound 0.8 µM)	relative viability (Vismodegib + Pemetrexed; first compound 2.53 µM)	relative viability (Vismodegib + Pemetrexed; first compound 8 µM)
NCI-H322M	0.641	0.605	0.662	0.628	0.639	0.248	0.258	0.241	0.238	0.217	1.01	0.965	1.01	0.87	0.97	0.607	0.618	0.548	0.609	0.646
NCI-H358	0.174	0.152	0.177	0.163	0.126	0.189	0.131	0.175	0.135	0.164	0.677	0.629	0.797	0.68	0.782	0.18	0.183	0.174	0.172	0.181
NCI-H441	0.259	0.252	0.273	0.231	0.261	0.507	0.432	0.698	0.396	0.672	1.24	1.04	0.931	0.774	1.01	0.247		0.246	0.247	0.283
NCI-H460	0.0622	0.0628	0.0588	0.0628	0.063	0.527	0.377	0.56	0.388	0.352	0.948	0.951	1.04	0.975	1.08	0.0652	0.0637	0.0589	0.0651	0.0689
NCI-H520	0.74	0.714	0.748	0.466	0.413	0.239		0.183	0.159	0.163	0.839	0.678	0.697	0.709	0.682	0.743	0.619	0.827	0.709	0.666
NCI-H596	0.507	0.481	0.607	0.462	0.717	0.581	0.654	0.585	0.575	0.496	0.826	0.83	0.463	0.964	1	0.475	0.489	0.394	0.525	0.502
NCI-H647	0.177	0.189	0.199	0.162	0.117	0.207	0.155	0.182	0.0851	0.106	1.24	1.22	1.26	1.02	1.14	0.156	0.188	0.171	0.15	0.184
NCI-H650	0.898	0.98	0.958	0.966	0.683		0.366	0.453	0.295	0.293	0.792	0.999	0.988	1.03	0.951	0.896	0.983	0.898	0.958	1.01
NCI-H661	0.925	0.959	0.939	1	0.809	0.964	0.872	1.03	0.695	0.498	1.07	1.02	0.99	0.961	1.09	0.915	0.854	0.887	0.876	0.941
NCI-H838	0.259	0.246	0.266	0.227	0.204	0.253	0.251	0.286	0.211	0.211	0.987	0.979	0.997	1.06	1.03	0.226	0.247	0.241	0.23	0.262
NCI-H1355	1.1	0.977	1.09	1.02	1.01	0.711	0.532	0.579	0.522	0.36	0.92	0.988	0.904	0.997	0.987	0.985	1.06	0.959	1.02	1.01
NCI-H1395	0.662	0.685	0.856	0.97	0.729	0.387	0.374	0.42	0.434	0.361	0.918	0.873	0.999	0.961	1.03	0.918	0.817	0.775	0.93	0.743
NCI-H1437	0.469	0.292	0.304	0.319	0.254	0.294	0.363	0.354	0.458	0.236	1.23	1.22	1.25	1.21	1.26	0.297	0.308	0.339	0.288	0.316
NCI-H1563	0.724	0.744	0.892	0.774	0.544	0.446	0.481	0.452	0.43	0.402	0.895	1.02	0.922	0.936	1.02	0.458	0.806	0.767	0.762	0.839
NCI-H1650	0.311	0.43	0.351	0.333	0.346		0.265	0.343	0.252	0.29	1.08	0.938	1.13	1.07	1.21	0.332	0.333	0.334	0.372	0.354
NCI-H1651	0.578	0.597	0.593	0.599	0.643	0.323	0.37	0.389	0.337	0.29	0.818	0.604	0.782	0.739	0.781	0.518	0.65	0.594	0.473	0.48
